The values below come from patent publication US20080318943A1, “Compounds and Uses Thereof - 848” (ASTRAZENECA AB, priority 2007, published 2008).

The target of experiment [1] is T1, GABAA2 receptors (α2, β3, γ2 receptor subunits transfected into Sf9 cells) (Homo sapiens, UniProt P18507+P47869).
T1 construct: host or cells: Sf9 cells (membranes)
Kind of experiment: GABAA2 Binding Method ([3H]-Flunitrazepam displacement). Conditions: [3H]-Flunitrazepam ~2 nM, α2β3γ2 Sf9 membranes, 1 hr at 4° C. Summed up: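 Membranes from Sf9 cells expressing α2β3γ2 GABAA receptors incubated with ~2 nM (final) [3H]-flunitrazepam and test compound 1 h at 4 °C, then filtered on GF/B plates with cold-buffer washes. Flumazenil-defined controls; percent of control, IC50 and Ki calculated.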

Another experiment deals with T2, GABAA receptor α2β3γ2 (Homo sapiens, UniProt P18507+P47869).
T2 construct: expressed in transfected cells; host or cells: Xenopus laevis oocytes injected with cRNA
T2 sequence (P47869 29-451): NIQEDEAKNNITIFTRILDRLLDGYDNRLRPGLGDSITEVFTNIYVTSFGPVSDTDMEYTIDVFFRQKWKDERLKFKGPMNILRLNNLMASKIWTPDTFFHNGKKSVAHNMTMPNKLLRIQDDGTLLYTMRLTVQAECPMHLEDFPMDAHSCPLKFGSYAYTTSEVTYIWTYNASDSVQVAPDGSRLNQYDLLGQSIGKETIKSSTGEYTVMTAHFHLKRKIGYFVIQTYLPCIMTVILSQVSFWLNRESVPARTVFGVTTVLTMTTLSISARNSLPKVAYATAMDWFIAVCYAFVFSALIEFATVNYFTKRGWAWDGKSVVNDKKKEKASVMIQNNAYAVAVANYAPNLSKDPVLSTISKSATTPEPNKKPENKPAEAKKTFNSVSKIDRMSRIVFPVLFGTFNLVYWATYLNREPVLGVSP
T2 sequence (P28472 26-473 partner): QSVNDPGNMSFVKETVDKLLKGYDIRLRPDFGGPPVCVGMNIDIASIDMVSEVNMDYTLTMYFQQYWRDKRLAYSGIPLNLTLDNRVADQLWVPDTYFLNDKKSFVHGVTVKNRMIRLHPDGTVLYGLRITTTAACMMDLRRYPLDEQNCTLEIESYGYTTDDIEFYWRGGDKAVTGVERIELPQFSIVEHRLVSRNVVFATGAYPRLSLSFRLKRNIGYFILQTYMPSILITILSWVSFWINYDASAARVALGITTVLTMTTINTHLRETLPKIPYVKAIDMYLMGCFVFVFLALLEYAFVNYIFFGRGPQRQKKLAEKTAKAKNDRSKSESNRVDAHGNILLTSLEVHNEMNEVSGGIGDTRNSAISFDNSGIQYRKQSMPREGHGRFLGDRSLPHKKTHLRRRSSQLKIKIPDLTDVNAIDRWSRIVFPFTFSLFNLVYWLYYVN
T2 sequence (P18507 40-475): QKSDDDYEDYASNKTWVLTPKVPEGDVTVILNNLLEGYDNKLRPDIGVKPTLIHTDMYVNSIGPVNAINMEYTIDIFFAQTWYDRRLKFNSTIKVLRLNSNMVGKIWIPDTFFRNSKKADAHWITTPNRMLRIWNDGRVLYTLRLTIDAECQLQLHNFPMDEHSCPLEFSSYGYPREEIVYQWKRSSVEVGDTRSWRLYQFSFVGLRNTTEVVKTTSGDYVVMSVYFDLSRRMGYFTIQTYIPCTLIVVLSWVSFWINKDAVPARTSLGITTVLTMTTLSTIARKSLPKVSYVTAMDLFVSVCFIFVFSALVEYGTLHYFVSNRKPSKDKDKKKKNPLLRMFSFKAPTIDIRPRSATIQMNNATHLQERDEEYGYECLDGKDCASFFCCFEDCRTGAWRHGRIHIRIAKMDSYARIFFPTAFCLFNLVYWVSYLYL
The experiment is described as follows: Two-electrode voltage-clamp potentiation of GABA EC10 current in Xenopus oocytes, GABAA2. The class given is cell-based. Conditions: percentage potentiation of GABA EC10 current divided by that of diazepam. The protocol: GABAA receptors were heterologously expressed in Xenopus oocytes by injecting cRNA corresponding to human α1, α2, α3, α5, β2, P3 and γ2 subunits of the GABAA receptor genes. The specific subunit combinations (subtypes) were as follows: α1β2γ2, α2β3γ2, α3β3γ2, and α5β3γ2. The EC10 of GABA is approximated for each cell. Stability of GABA-mediated (EC10) current is established. Modulatory effect of test compound is determined and compared across subtypes. […] Thus, the assay can characterize modulatory effects and determine subtype selectivity of test compounds on major subtypes of GABAA receptors.
Xenopus laevis frogs (Xenopus I, Kalamazoo, Mich.) were anesthetized using 0.15% tricaine. Surgically removed ovarian lobes were teased out in OR2 solution (82 NaCl, 2.5 KCl, 5 HEPES, 1.5 NaH2PO4, 1 MgCl2, 0.1 EDTA, in mM, pH 7.4). The oocytes were defolliculated by incubation in 25 mL OR2 containing 0.2% collagenase 1A (SIGMA) two times for about 60 minutes on a platform shaker and stored in Leibovitz's L-15 medium. Oocytes were injected the following day in 0.5× Leibovitz's L-15 medium containing […] gentamycin, 10 units/ml penicillin, and […] streptomycin.
Capped cRNAs from the linearized vectors containing human α1, β2 and γ2 subunits of the GABAA receptor genes were mixed in ratio of […]. Oocytes were injected with 25-50 nL of mixed RNA with an appx molar ratio for α1, β2, and γ2 as 1:1:10. Oocyte recordings were done 2-10 days after injection. The same methods apply to subtypes derived from α2β3γ2, α3β3γ2, and α5β3γ2, except for 1:1:1 ratio was used for α, β, and γ subunits.
All measurements were done in a medium containing ND-96 (96 NaCl, 2 KCl, 1.8 CaCl2.2H2O, 1 MgCl2.6H2O, 5 HEPES, in mM, pH 7.5). Two-electrode voltage-clamp recording was carried out using OpusXpress amplifier (Axon Instruments, Foster City, Calif.), which allows simultaneous recording from 8 oocytes. Oocytes were impaled with two electrodes of 1-2 MΩ tip resistance when filled with 3M KCl. Recordings were begun when membrane potential became stable at potentials negative to −50-−60 mV. Membrane potential was held at −60 mV. […] The concentration of GABA corresponded to the EC10 value calculated for each oocyte. The modulator pulses started 30 s before the GABA pulse so as to allow preincubation with the modulator. A set of 3 pulses with just GABA without modulator was given prior to the modulator-containing pulses to define the baseline GABA response. Two oocytes per each experiment were dedicated to observe the effect of diazepam on GABA response to ensure the presence of γ2 subunit in the GABAA pentameric complex, which imparts diazepam sensitivity to the complex.
Current amplitude (i) was measured from baseline to peak using Clampfit (Axon Inst., Foster City, Calif.). Potentiation was calculated as percent change from the baseline GABA current flux 100×(imod/icontrol)−1) where imod=current mediated by modulator+GABA and icontrol=current mediated by GABA alone. […] Similarly, a value of −50% potentiation means the presence of modulator caused a 50% decrease in the control current. Various other data shown here were fitted and plotted using GraphPad Prism (GraphPad Software, Inc. San Diego, Calif.). The percentage potentiation was converted to relative potentiation by dividing it with percentage potentiation value obtained from the same assay with diazepam as a control.
(Two-electrode voltage clamp holds a large cell at a set potential and records current.)

In a further experiment the target is T3, GABAA receptor α1β2γ2 (Homo sapiens, UniProt P14867+P18507).
T3 construct: expressed in transfected cells; host or cells: Xenopus laevis oocytes injected with cRNA
T3 sequence (P14867 28-456): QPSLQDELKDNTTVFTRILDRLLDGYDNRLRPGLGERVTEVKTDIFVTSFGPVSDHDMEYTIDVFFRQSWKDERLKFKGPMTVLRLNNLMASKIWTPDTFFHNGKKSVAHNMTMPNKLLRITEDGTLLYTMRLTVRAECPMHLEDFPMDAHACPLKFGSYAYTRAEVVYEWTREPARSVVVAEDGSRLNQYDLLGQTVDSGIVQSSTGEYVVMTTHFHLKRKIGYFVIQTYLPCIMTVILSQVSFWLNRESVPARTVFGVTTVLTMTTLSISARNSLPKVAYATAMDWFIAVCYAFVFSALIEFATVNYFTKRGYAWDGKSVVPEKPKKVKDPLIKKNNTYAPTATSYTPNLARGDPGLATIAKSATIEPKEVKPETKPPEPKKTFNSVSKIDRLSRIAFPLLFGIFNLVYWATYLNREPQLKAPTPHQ
T3 sequence (P47870 25-512 partner limits assumed): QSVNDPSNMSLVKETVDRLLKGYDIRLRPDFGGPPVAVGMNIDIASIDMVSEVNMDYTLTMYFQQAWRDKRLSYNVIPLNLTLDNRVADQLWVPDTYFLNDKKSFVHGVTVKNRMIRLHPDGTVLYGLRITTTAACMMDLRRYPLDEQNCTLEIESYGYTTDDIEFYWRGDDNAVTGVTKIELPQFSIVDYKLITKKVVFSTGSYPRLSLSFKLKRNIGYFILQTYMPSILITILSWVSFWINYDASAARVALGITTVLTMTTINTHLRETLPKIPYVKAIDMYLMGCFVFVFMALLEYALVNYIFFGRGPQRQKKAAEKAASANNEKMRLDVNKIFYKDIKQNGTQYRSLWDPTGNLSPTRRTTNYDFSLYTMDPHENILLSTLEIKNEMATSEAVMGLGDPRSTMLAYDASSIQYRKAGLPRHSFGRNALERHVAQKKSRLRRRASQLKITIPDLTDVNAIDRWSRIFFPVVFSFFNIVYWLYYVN
T3 sequence (P18507 40-475): as the sequence (P18507 40-475) above
The experiment is described as follows: Two-electrode voltage-clamp potentiation of GABA EC10 current in Xenopus oocytes, GABAA1. The class given is cell-based. The settings on record: percentage potentiation of GABA EC10 current divided by that of diazepam. An outline of the steps:
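Human GABAA receptors expressed in Xenopus oocytes by cRNA injection (α:β:γ molar ratio ~1:1:10 for α1β2γ2, 1:1:1 for α2β3γ2), recorded 2-10 days later by two-electrode voltage clamp at −60 mV in ND-96, pH 7.5. Modulator preapplied 30 s before GABA at per-oocyte EC10. Peak-current percent potentiation over GABA alone, normalised to diazepam.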

Where [2] appears, read: listed as 9-Amino-2-cyclobutyl-5-((P)-2-fluoro-6-methoxyphenyl)-2,3-dihydro-pyrrolo[3,4-b].
[3] abbreviates: listed as 9-Amino-2-cyclobutyl-5-((M)-2-fluoro-6-methoxyphenyl)-2,3-dihydro-pyrrolo[3,4-b].

T1 sequence (P47869 29-451): as the sequence (P47869 29-451) above
T1 sequence (P28472 26-473 partner): as the sequence (P28472 26-473 partner) above
T1 sequence (P18507 40-475): as the sequence (P18507 40-475) above

In general, Ki refers to the dissociation constant of the complex between target and ligand, obtained from inhibition or displacement. As to `COc1cccc(F)c1-c1cccc2c(N)c3c(nc12)CN([C@H]1C[C@@H](C)C1)C3=O`, the affinity in experiment [1], expressed as Ki, was 0.945 nM. In addition, on GABAA receptor α2β3γ2, the “Relative Potentiation for GABAA2” value is 0.39. Besides, the “Relative Potentiation for GABAA1” value on GABAA receptor α1β2γ2 is recorded as 0.054.
The matching figures for `COc1ncccc1-c1cccc2c(N)c3c(nc12)CN([C@H]1C[C@@H](C)C1)C3=O`: 1.29 nM, 0.51 and 0.085.
The matching figures for `COc1ccc(-c2cccc3c(N)c4c(nc23)CN([C@H]2C[C@@H](C)C2)C4=O)c(C)n1`: 4.65 nM, 0.3 and 0.14.
The matching figures for `COc1ncccc1-c1c(F)ccc2c(N)c3c(nc12)CN(C1CCOC1)C3=O` (stereo not shown): 18.8 nM, 0.32 and 0.097.
In experiment [1], `COc1cccc(F)c1-c1cccc2c(N)c3c(nc12)CN(C1CC1)C3=O` (atropisomer, axis not shown; (P)) displayed a Ki of 3.63 nM. In addition, the “Relative Potentiation for GABAA2” value at GABAA receptor α2β3γ2 was 0.38. Moreover, the “Relative Potentiation for GABAA1” value at GABAA receptor α1β2γ2 is given as −0.018.
Turning to `COc1cccc(F)c1-c1cccc2c(N)c3c(nc12)CN(C1CCC1)C3=O` (single isomer, unassigned) [Example 129, 9-Amino-2-cyclobutyl-5-((P)-2-fluoro-6-methoxyphenyl)-2,3-dihydropyrrolo[3,4-b]quinolin-1-one], the Ki in experiment [1] is 0.289 nM. The “Relative Potentiation for GABAA2” value on GABAA receptor α2β3γ2 (setting [2]) was found to be 0.23. The “Relative Potentiation for GABAA1” value on GABAA receptor α1β2γ2 (setting [2]) is reported as −0.11.
`COc1cccc(F)c1-c1cccc2c(N)c3c(nc12)CN(C1CCC1)C3=O` (single isomer, unassigned) [Example 130, 9-Amino-2-cyclobutyl-5-((M)-2-fluoro-6-methoxyphenyl)-2,3-dihydropyrrolo[3,4-b]quinolin-1-one] registered an inhibition constant (Ki) in experiment [1] of 9.21 nM. Moreover, on GABAA receptor α2β3γ2 (setting [3]), the “Relative Potentiation for GABAA2” value is reported as 0.23. In addition, the “Relative Potentiation for GABAA1” value at GABAA receptor α1β2γ2 (setting [3]) amounted to 0.002.
In turn, `COc1cccc(C#N)c1-c1cccc2c(N)c3c(nc12)CN(C1CCC1)C3=O` [2-(9-Amino-2-cyclobutyl-1-oxo-2,3-dihydro-1H-pyrrolo[3,4-b]quinolin-5-yl)-3-methoxybenzonitrile] had a Ki in experiment [1] of 5.46 nM. The “Relative Potentiation for GABAA2” value at GABAA receptor α2β3γ2 came out at 0.21. Moreover, the “Relative Potentiation for GABAA1” value at GABAA receptor α1β2γ2 was −0.043.
In experiment [1], `N#Cc1ccc(F)cc1-c1cccc2c(N)c3c(nc12)CN(C1CCC1)C3=O` [2-(9-Amino-2-cyclobutyl-1-oxo-2,3-dihydro-1H-pyrrolo[3,4-b]quinolin-5-yl)-4-fluorobenzonitrile] had a Ki of 6.2 nM. The “Relative Potentiation for GABAA2” value at GABAA receptor α2β3γ2 came to 0.21. The “Relative Potentiation for GABAA1” value at GABAA receptor α1β2γ2 is reported as −0.02.
The matching figures for `N#Cc1cc(F)ccc1-c1cccc2c(N)c3c(nc12)CN(C1CCC1)C3=O` [2-(9-Amino-2-cyclobutyl-1-oxo-2,3-dihydro-1H-pyrrolo[3,4-b]quinolin-5-yl)-5-fluorobenzonitrile]: 4.19 nM, 0.11 and −0.024.
The matching figures for `COc1cccc(-c2cccc3c(N)c4c(nc23)CN(C2CCC2)C4=O)c1C#N` [2-(9-Amino-2-cyclobutyl-1-oxo-2,3-dihydro-1H-pyrrolo[3,4-b]quinolin-5-yl)-6-methoxybenzonitrile]: 0.905 nM, 0.18 and −0.016.
The matching figures for `N#Cc1ccccc1-c1cccc2c(N)c3c(nc12)CN(C1CCCC1)C3=O` [2-(9-Amino-2-cyclopentyl-1-oxo-2,3-dihydro-1H-pyrrolo[3,4-b]quinolin-5-yl)-benzonitrile]: 5.75 nM, 0.27 and 0.062.
With `N#Cc1ccccc1-c1cccc2c(N)c3c(nc12)CN(C1CC1)C3=O` [2-(9-Amino-2-cyclopropyl-1-oxo-2,3-dihydro-1H-pyrrolo[3,4-b]quinolin-5-yl)-benzonitrile], in experiment [1], the inhibition constant (Ki) turned out to be 16.3 nM. In addition, at GABAA receptor α2β3γ2, the “Relative Potentiation for GABAA2” value is 0.087. For the same compound, at GABAA receptor α1β2γ2, the “Relative Potentiation for GABAA1” value was −0.064.
In experiment [1], `COc1ccc(-c2cccc3c(N)c4c(nc23)CN(C)C4=O)c(OC)n1` [9-Amino-5-(2,6-dimethoxypyridin-3-yl)-2-methyl-2,3-dihydropyrrolo[3,4-b]quinolin-1-one] had a Ki of 290 nM. Besides, the “Relative Potentiation for GABAA2” value at GABAA receptor α2β3γ2 was 0.19.
As for `CCCN1Cc2nc3c(-c4cnc(OC)c(C)c4)cccc3c(N)c2C1=O` [9-amino-5-(6-methoxy-5-methylpyridin-3-yl)-2-propyl-2,3-dihydro-1H-pyrrolo[3,4-b]quinolin-1-one], in experiment [1], affinity was put at a Ki of 36.5 nM. Besides, on GABAA receptor α1β2γ2, the “Relative Potentiation for GABAA1” value came out at 0.32.
As to `CCCN1Cc2nc3c(-c4ccoc4)cccc3c(N)c2C1=O` [9-amino-5-(furan-3-yl)-2-propyl-2,3-dihydro-1H-pyrrolo[3,4-b]quinolin-1-one], the Ki in experiment [1] stood at 38.2 nM. In addition, the “Relative Potentiation for GABAA1” value at GABAA receptor α1β2γ2 was 0.13.
The matching figures for `CCCN1Cc2nc3c(-c4ccccc4)cccc3c(N)c2C1=O` [9-amino-5-phenyl-2-propyl-2,3-dihydro-1H-pyrrolo[3,4-b]quinolin-1-one]: 43.8 nM and 0.51.
With `CCN1Cc2nc3c(-c4ccc(OC)nc4OC)cccc3c(N)c2C1=O` [Example 27, 9-Amino-5-(2,6-dimethoxypyridin-3-yl)-2-ethyl-2,3-dihydropyrrolo[3,4-b]quinolin-1-one], affinity in experiment [1] was put at a Ki of 50.1 nM. Besides, on GABAA receptor α2β3γ2, the “Relative Potentiation for GABAA2” value was 0.18.
The matching figures for `CCCN1Cc2nc3c(-c4cccnc4)cccc3c(N)c2C1=O` [Example 40, 9-Amino-2-propyl-5-pyridin-3-yl-2,3-dihydropyrrolo[3,4-b]quinolin-1-one]: 46.5 nM and 0.27.
The compound `CCCCN1Cc2nc3c(-c4ccc(OC)nc4OC)cccc3c(N)c2C1=O` [Example 43, 9-Amino-2-butyl-5-(2,6-dimethoxypyridin-3-yl)-2,3-dihydropyrrolo[3,4-b]quinolin-1-one] returned a Ki in experiment [1] of 45 nM. The “Relative Potentiation for GABAA2” value on GABAA receptor α2β3γ2 was determined as 0.37.
As to `COc1cccc(C#N)c1-c1cccc2c(N)c3c(nc12)CN(C1CC1)C3=O` [Example 139, 2-(9-Amino-2-cyclopropyl-1-oxo-2,3-dihydro-1H-pyrrolo[3,4-b]quinolin-5-yl)-3-methoxybenzonitrile], the “Relative Potentiation for GABAA2” value at GABAA receptor α2β3γ2 amounted to 0.15. In addition, on GABAA receptor α1β2γ2, the “Relative Potentiation for GABAA1” value is recorded as −0.078.
